The text below walks through data of ChEMBL document CHEMBL4270610, “Pyrrolopyrimidines: An update on recent advancements in their medicinal attributes” (Eur J Med Chem, 2018).

The term inhibition in vivo denotes the relative decrease from the control value, in per cent. The term IC50 denotes the concentration that inhibits the measured activity by half. Broadly, the inhibition is the relative decrease from the control value, in per cent.

Experiment [1] deals with Rattus norvegicus. The experiment is described as follows: Inhibition of LPS-induced TNFalpha level in Sprague-Dawley rat serum at 25 mg/kg, po pretreated for 1 hr followed by LPS treatment measured after 90 mins by ELISA relative to control. It is filed as functional.
For experiment [2], the target named is T1, Tyrosine-protein kinase Lyn (Homo sapiens, UniProt P07948). The experiment is described as follows: Inhibition of Lyn (unknown origin) using Src-family kinase bisamide rhodamine 110 peptide substrate after 1 hr by fluorescence assay.
Target sequence in this assay (P07948 whole entry): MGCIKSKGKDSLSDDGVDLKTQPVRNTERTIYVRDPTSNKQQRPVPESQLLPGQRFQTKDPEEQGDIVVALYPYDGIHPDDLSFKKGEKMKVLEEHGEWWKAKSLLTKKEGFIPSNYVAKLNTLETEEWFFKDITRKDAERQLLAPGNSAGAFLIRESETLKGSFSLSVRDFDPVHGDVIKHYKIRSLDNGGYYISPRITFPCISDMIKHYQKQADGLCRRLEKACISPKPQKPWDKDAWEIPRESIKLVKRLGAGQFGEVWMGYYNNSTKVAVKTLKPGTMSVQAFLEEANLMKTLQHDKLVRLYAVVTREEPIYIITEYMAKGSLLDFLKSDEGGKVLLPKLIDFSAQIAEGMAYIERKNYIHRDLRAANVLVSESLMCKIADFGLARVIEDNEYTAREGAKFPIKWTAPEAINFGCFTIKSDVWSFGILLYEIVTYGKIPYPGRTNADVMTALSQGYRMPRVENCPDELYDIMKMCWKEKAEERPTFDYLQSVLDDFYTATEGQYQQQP
For experiment [3], the target named is Proto-oncogene tyrosine-protein kinase Src (Homo sapiens) (UniProt P12931). Kind of experiment: Inhibition of Src (unknown origin) at 0.1 mM using Src-family kinase bisamide rhodamine 110 peptide substrate after 1 hr by fluorescence assay relative to control.
Sequence of Proto-oncogene tyrosine-protein kinase Src (Homo sapiens) (P12931 2-536 limits assumed): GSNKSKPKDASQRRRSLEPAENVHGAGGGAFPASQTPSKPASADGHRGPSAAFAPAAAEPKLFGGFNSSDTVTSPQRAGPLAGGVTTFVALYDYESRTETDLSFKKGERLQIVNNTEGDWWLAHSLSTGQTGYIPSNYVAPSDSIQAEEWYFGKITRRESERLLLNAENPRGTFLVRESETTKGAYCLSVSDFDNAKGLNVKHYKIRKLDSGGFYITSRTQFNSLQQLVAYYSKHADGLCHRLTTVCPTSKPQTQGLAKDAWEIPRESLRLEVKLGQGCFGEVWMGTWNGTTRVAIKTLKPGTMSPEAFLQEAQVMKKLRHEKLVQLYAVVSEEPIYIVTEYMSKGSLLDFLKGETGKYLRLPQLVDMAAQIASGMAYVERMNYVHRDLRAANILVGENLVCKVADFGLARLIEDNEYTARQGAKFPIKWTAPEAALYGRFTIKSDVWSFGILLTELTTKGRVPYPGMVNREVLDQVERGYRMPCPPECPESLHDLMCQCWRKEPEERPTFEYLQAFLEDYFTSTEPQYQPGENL
For experiment [4], the target named is T2, Tyrosine-protein kinase Fyn (Homo sapiens, UniProt P06241). Kind of experiment: Inhibition of Fyn (unknown origin) at 0.1 mM using Src-family kinase bisamide rhodamine 110 peptide substrate after 1 hr by fluorescence assay relative to control.
Target sequence in this assay (P06241 2-537 limits assumed): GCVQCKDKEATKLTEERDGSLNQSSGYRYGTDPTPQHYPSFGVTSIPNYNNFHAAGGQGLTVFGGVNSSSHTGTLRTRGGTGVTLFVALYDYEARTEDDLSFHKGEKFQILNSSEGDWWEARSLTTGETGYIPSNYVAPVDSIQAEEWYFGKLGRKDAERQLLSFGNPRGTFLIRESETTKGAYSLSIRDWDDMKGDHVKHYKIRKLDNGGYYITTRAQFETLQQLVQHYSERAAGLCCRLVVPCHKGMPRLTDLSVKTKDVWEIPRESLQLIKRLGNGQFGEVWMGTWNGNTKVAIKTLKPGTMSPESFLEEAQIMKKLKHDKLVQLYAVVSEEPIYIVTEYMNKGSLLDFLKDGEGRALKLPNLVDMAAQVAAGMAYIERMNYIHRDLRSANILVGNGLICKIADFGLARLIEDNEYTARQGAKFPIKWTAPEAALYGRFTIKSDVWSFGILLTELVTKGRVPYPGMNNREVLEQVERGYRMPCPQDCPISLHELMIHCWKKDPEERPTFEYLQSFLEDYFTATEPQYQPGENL
The target in experiment [5] is T1, Tyrosine-protein kinase Lyn. The experiment is described as follows: Inhibition of Lyn (unknown origin) at 0.1 mM using Src-family kinase bisamide rhodamine 110 peptide substrate after 1 hr by fluorescence assay relative to control.
Target sequence in this assay (P07948 2-512 limits assumed): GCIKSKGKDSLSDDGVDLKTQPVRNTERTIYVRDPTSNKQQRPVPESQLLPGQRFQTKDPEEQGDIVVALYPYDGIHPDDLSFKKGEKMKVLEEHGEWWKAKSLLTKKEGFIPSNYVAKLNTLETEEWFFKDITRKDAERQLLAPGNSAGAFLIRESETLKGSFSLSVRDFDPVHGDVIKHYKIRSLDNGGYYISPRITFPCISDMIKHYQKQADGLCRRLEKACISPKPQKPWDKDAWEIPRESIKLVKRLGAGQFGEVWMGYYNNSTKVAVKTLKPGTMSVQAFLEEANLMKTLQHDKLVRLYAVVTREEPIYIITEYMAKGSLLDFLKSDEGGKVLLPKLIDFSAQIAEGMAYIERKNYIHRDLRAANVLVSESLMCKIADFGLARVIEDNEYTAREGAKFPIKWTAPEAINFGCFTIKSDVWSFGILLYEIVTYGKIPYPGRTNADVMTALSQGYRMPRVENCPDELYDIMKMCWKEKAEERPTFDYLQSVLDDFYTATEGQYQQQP
Experiment [6] concerns Rattus norvegicus. Kind of experiment: Anti-hyperglycemic activity in Wistar albino rat sucrose loaded model assessed as reduction in blood glucose level at 4 mg/kg equiv of glimepiride pretreated orally for 30 mins followed by sucrose challenge and measured up to 120 mins post sucrose challenge relative to control. It is filed as functional. The arrangement: scale not given: the % may be the effect or the level left.

The subject of experiment [7] is Rattus norvegicus. The experiment is described as follows: Anti-hyperglycemic activity in streptozotocin-induced Wistar albino rat diabetic model assessed as reduction in blood glucose level at 4 mg/kg equiv of glimepiride treated orally measured up to 6 hrs post dose by glucometric method relative to control. It is filed as functional. The arrangement: scale not given: the % may be the effect or the level left.

The next experiment deals with Tetrahymena. The experiment is described as follows: Protozoacidal activity against Tetrahymena. It is filed as functional.
The next experiment relates to Salmonella typhimurium. The experiment is described as follows: Antibacterial activity against Salmonella typhimurium. It counts as functional, Salmonella enterica subsp. enterica serovar Typhimurium. The conditions noted are these: Salmonella enterica.
In another experiment the test system is Escherichia coli. The experiment is described as follows: Antibacterial activity against Escherichia coli. It counts as functional.
The test system of the next experiment is HL-60. The experiment is described as follows: Antiproliferative activity against human HL60 cells. It counts as functional, cell-based.
A further experiment relates to Jurkat E6.1. The experiment is described as follows: Antiproliferative activity against human Jurkat E6-1 cells. It counts as functional, cell-based.
Experiment [8] relates to unidentified influenza virus. Kind of experiment: Antiviral activity against Influenza virus H5N1. It counts as functional.
Another experiment concerns Newcastle disease virus. Kind of experiment: Antiviral activity against Newcastle disease virus. The conditions noted are these: avian paramyxovirus 1. It counts as functional.
Experiment [9] concerns the target T2, Tyrosine-protein kinase Fyn. Kind of experiment: Inhibition of Fyn (unknown origin) using Src-family kinase bisamide rhodamine 110 peptide substrate after 1 hr by fluorescence assay.
Target sequence in this assay (P06241 whole entry): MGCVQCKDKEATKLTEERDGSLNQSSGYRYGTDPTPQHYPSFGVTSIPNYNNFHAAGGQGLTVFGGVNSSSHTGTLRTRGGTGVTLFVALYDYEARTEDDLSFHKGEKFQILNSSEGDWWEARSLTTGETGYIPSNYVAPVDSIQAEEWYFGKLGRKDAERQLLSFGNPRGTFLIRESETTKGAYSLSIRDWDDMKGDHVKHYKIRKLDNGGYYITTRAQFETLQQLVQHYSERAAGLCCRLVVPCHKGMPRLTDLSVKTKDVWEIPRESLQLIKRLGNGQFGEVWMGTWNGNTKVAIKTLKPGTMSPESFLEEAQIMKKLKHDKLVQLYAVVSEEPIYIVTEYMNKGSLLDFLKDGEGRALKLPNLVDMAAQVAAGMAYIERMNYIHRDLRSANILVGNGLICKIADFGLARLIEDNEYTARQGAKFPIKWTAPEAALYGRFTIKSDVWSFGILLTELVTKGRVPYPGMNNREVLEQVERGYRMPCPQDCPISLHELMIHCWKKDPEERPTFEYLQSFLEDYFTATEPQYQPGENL

≈ marks a conversion by molar mass, not a printed value.

As to `CCOc1ccc(NC(=O)Cn2cnc3c(cc(-c4ccccc4)n3-c3ccncc3)c2=O)cc1`, the inhibition in vivo at 25 mg/kg in the experiment on Rattus norvegicus [1] was 96%.

The compound `COc1cccc(-c2cn(-c3ccc(CCN4CCC(O)CC4)cc3)c3ncnc(N)c23)c1` came in with an IC50 in experiment [2] of 0.4 nM.

Consider `Cc1ccc(C(=O)NCc2c[nH]c3nc(N)[nH]c(=O)c23)s1`, for which the inhibition was 71% in experiment [3], 41% in experiment [4] and 40% in experiment [5].

`Cc1nc(Cl)c2c(-c3ccccc3)c(-c3ccccc3)n(-c3c(C)n(C)n(-c4ccccc4)c3=O)c2n1`: the Activity is 13% in the experiment on Rattus norvegicus [6] and 11.2% in the experiment on Rattus norvegicus [7].

In the experiment with Tetrahymena, `COc1ccc(-c2cc3c(N[C@H](C)c4cccc5ccccc45)ncnc3[nH]2)cc1` yielded an MIC of 32 µg/mL (≈ 81.1 µM).

With `COc1ccc(CCCC(=O)NCc2c[nH]c3nc(N)[nH]c(=O)c23)cc1OC`, the inhibition in [3] was determined as 54%; in experiment [4], 38%; in experiment [5], 32%.

`O=c1[nH]cnc2c1cc(-c1ccc(Cl)cc1)n2-c1ccccc1`: the MIC in the experiment with Salmonella typhimurium and with Escherichia coli was 3.2 µg/mL (≈ 9.95 µM) in each case.

With `Nc1ccn([C@@H]2O[C@H](CO)[C@@H](O)[C@@H]2O)c(=O)n1` [CYTARABINE], the IC50 turned out to be 185 nM with HL-60 and 18 nM in the experiment on Jurkat E6.1.

Regarding `O=c1c2cc(-c3ccc(Br)cc3)n(-c3ccccc3)c2ncn1CC(O)CO` (centres undefined), the MIC in experiment [8] is 4.1 µg/mL (≈ 9.31 µM).

On to `O=c1[nH]cnc2c1cc(-c1ccccc1)n2-c1ccccc1`, for which the MIC worked out at 2.8 µg/mL (≈ 9.75 µM) against Salmonella typhimurium, 2.8 µg/mL (≈ 9.75 µM) in the experiment with Escherichia coli and 2.7 µg/mL (≈ 9.4 µM) against Newcastle disease virus.

On to `NC(=O)c1ncn([C@@H]2O[C@H](CO)[C@@H](O)[C@H]2O)n1` [RIBAVIRIN], for which the values for the MIC (in experiment [8]; against Newcastle disease virus) were 6 µg/mL (≈ 24.6 µM) and 3 µg/mL (≈ 12.3 µM), respectively.

As to `Nc1nc2[nH]cc(CNC(=O)COc3ccc(Cl)cc3)c2c(=O)[nH]1`, the inhibition in [3] came out at 60%; in [4], 36%; in experiment [5] it was 28%.

As to `O=c1c2cc(-c3ccc(Br)cc3)n(-c3ccccc3)c2ncn1CCOCCO`, the MIC in [8] came to 4.5 µg/mL (≈ 9.9 µM).

In turn, `O=c1c2cc(-c3ccccc3)n(-c3ccccc3)c2ncn1CC(O)CO` (centres undefined) came in with an MIC in [8] of 3.6 µg/mL (≈ 9.96 µM).

In turn, `O=c1c2cc(-c3ccccc3)n(-c3ccccc3)c2ncn1CCOCCO` returned an MIC in experiment [8] of 3.8 µg/mL (≈ 10.1 µM).

In the case of `C[C@@H]1C[C@H]2[C@@H]3CCC4=CC(=O)C=C[C@]4(C)[C@@]3(F)[C@@H](O)C[C@]2(C)[C@@]1(O)C(=O)CO` [DEXAMETHASONE], in the experiment with Rattus norvegicus [1], the inhibition in vivo at 25 mg/kg was 91%.

Regarding `CCCCCc1ccc(-c2cc3cn([C@@H]4O[C@H](CO)[C@@H](O)[C@@H]4O)c(=O)nc3[nH]2)cc1`, the IC50 was 68000 nM with HL-60 and 61000 nM with Jurkat E6.1.

As for `CN1CCN([C@H]2CC[C@H](n3cc(-c4ccc(Oc5ccccc5)cc4)c4c(N)ncnc43)CC2)CC1`, in experiment [9], 0.3 nM corresponded to half-maximal inhibition (IC50).

Take `C[C@H](Nc1ncnc2[nH]c(-c3ccc(O)cc3)cc12)c1ccccc1`: in the experiment on Tetrahymena, the MIC turned out to be 8 µg/mL (≈ 24.2 µM).

In the experiment with Tetrahymena, `C[C@H](Nc1ncnc2[nH]c(-c3ccc(O)cc3)cc12)c1ccc(Br)cc1` displayed an MIC of 8 µg/mL (≈ 19.5 µM).

As for `C[C@@H](Nc1ncnc2[nH]c(-c3ccc(O)cc3)cc12)c1cccc2ccccc12`, the MIC in the experiment on Tetrahymena is 32 µg/mL (≈ 84.1 µM).
